We go through one compound from US20260015333A1, “COMPOUNDS AND METHODS FOR INHIBITION OF THE EVOLUTION OF […]” (priority 2022, published 2026).

What all share (format): cell-based
Test [1] concerns S. typhimurium ST19. Briefly: Luria-Delbruck fluctuation assay. The note with it: 100 μM ARM-1, plated on 80 ng/ml ciprofloxacin. The protocol: (§1) FIGS. 3A-3C depict how ARM-1 reduces mutation frequency in culture and during infection. FIG. 3A depicts a Luria-Delbruck fluctuation assay with ARM-1 treatment. Single colonies of WT and Δmfd S. typhimurium ST19 were used to inoculate overnight cultures with appropriate antibiotic selection. Cultures were then diluted back to OD600 0.0005 and grown to OD600 0.5 with or without 100 μM ARM-1 treatment. Samples were plated on 80 ng/ml ciprofloxacin and grown overnight, then enumerated the following day. Data shown are the result of a minimum of 50 replicates. FIG. 3B depicts the invasion and infection efficiency in the presence of ARM-1. WT S. typhimurium ST19 in mid-log phase growth was used to infect HeLa cells. Invasion was allowed to proceed for 1 hour before uninternalized bacteria were removed and fresh media applied, containing vehicle control or 31.25 μM ARM-1. At the indicated timepoints, HeLa cells were lysed using 1% Triton-H2O and intracellular bacteria serially diluted and plated on LB for CFU enumeration. FIG. 3C depicts mutation frequency post mammalian cell infection. WT and Δmfd S. typhimurium ST19 were used to infect HeLa cells as described in FIG. 3B. Following infection, intracellular bacteria were harvested and plated on 50 μg/mL 5-fluorocytosine and grown overnight. Mutants were enumerated the following morning. […]

Test [2] concerns S. typhimurium. Briefly: Growth curves with increasing concentrations of ARM-1. The method, then:
(§2) FIG. 10 depicts growth curves of indicated species in the presence of increasing concentrations of ARM-1. Precultures of each species were grown with appropriate antibiotic selection, then diluted back to OD600 0.05 in a 96 well plate. Indicated concentrations of ARM-1 were added, and plates incubated overnight at 37° C. with shaking. OD measurements taken every 60 s by BioTek plate reader. Data shown are representative of at least 6 biological replicates. Growth curve for S. typhimurium also confirms MIC of 400 μM ARM-1 for this species, with no growth observed over the experimental timeframe.

The subject of test [3] is all species tested. The description is as above. The note with it: across all species tested. The protocol:
as §2

Test [4] relates to S. typhimurium ST19. As to the kind of experiment: Invasion and infection efficiency in HeLa cells. The note with it: 31.25 μM ARM-1, compared to untreated WT. The protocol: as §1

Consider `Cc1cc(Br)ccc1-c1ccc(CNCCCN(C)C)o1` [ARM-1, N^1-((5-(4-bromo-2-methylphenyl)furan-2-yl)methyl)-N^3,N^3-dimethylpropane-1,3-diamine], for which the “reduction in WT mutation frequency” value in test [1] is listed as 3 fold. The minimal inhibitory concentration (MIC) in test [2] (Salmonella enterica, TYPHIMURIUM, growth curve, no growth observed over the experimental timeframe) came out at 400 µM. Further, the growth defects entry in test [2] (at the ARM-1 concentrations used for ChIP) is reported as “no growth defects”. For the same compound, the “doubling time, treated versus untreated population” value in test [3] was “consistent”. The “defect in invasion or proliferation in HeLa cells” value in test [4] is “Neither the Δmfd mutant nor ARM-1 or solvent-treated wild-type or Δmfd strains show a defect in invasion or proliferation”.
